Positions count from the first letter of the chain named. Names may count otherwise.
B1: L29S-R32W-S86T: human TNFα mutein L29S-R32W-S86T (protein)
chain: VRSSSRTPSDKPVAHVVANPQAEGQLQWSNRWANALLANGVELRDNQLVVPSEGLYLIYSQVLFKGQGCPSTHVLLTHTISRIAVTYQTKVNLLSAIKSPCQRETPEGAEAKPWYEPIYLGGVFQLEKGDRLSAEINRPDYLDFAESGQVYFGIIAL
B2: R31N-R32T-N34S: human TNFα mutein R31N-R32T-N34S (protein)
chain: B1 chain with S29L, R31N, W32T, N34S, T86S
B3: R31N-R32T-S86T: human TNFα mutein R31N-R32T-S86T (protein)
chain: B1 chain with S29L, R31N, W32T
B4: D143V-F144L-A145S: human TNFα mutein D143V-F144L-A145S (protein)
chain: B1 chain with S29L, W32R, T86S, D143V, F144L, A145S

Tests used:
[1] = test system: human TNFR-p55; assay: Solid phase radioligand competition binding assay, E. coli lysates, TNFR-p55; settings: for Dilution of E. coli Lysate for 50% Inhibition of 125I-TNFα Binding (ID50) TNFR-p55: 10-fold serial dilutions 10^-2 to 10^-7, < = inhibition but below 50% at 1:100, << = no measurable inhibition at 1:100; for ID50 TNFR-p55 / ID50 TNFR-p75: ratio = 1 no receptor selectivity, > 1 TNFR-p55 selectivity, < 1 TNFR-p75 selectivity
Protocol: (§1) After 20 min incubation at room temperature 50 μl of 1M MgCl2, 20 μl of 5 mg/ml DNaseI, 50 μl of 5M NaCl and 50 μl of 10% NP-40 were added and the mixture was further incubated at room temperature for 15 min. 0.5 ml of the lysate clarified by centrifugation at 13'000 rpm for 5 min was subjected to ammonium sulfate precipitation (25%-70% cut). The 70% ammonium sulfat pellet was dissolved in 0.2 ml PBS and analyzed by sodium dodecyl sulfate polyacrylamide gel electrophoresis (SDS-PAGE) to confirm presence and approximate amount of the recombinant proteins.
TNFα was labelled by the Iodogen method (Pierce Chemical Company) to a specific activity of about 10-30 μCi/μg. The volume was 100 μl/well and each lysate dilution was assayed in duplicate or triplicate. After three hours at room temperature the wells were thoroughly washed with PBS and counted in a γ-counter. The results are given in Table 2 for lysates comprising the muteins indicated therein.

[2] = test system: human TNFR-p75; assay: Solid phase radioligand competition binding assay, E. coli lysates, TNFR-p75; settings: 10-fold serial dilutions 10^-2 to 10^-7, < = inhibition but below 50% at 1:100, << = no measurable inhibition at 1:100
Protocol: as §1, with “10 ml suspensions of E. coli cells transformed and induced as described in Examples I and II were centrifuged at 4'000 rpm for 10 min and resuspended in 0.9 ml of lysis buffer (10 mM Tris-HCl pH 8.0, 5 mM EDTA, 2 mM PMSF, 10 mM benzamidine, 200 units/ml aprotinine and 0.1 mg/ml lysozyme). After” for “After”
96 well microtiter plates were coated with recombinant human […] TNFR-p75-hγ3 and TNFR-p55-hγ3 fusion proteins (extracellular portion of the receptor fused to the Fc part of human IgG3) at a concentration of 0.3 μg/ml and 0.1 μg/ml, respectively, in phosphate buffered saline (PBS, 100 μl/well, overnight at 4° C.) [Loetscher, H. et al. J. Biol. Chem. 266, 18324-18329 (1991); Lesslauer, W. et al. Eur. J. Immunol. 21, 2883-2886 (1991)]. After blocking with blocking buffer (50 mM Tris pH 7.4, 140 mM NaCl, 5 mM EDTA, 0.02% NAN3, 1% defatted milk powder) the microtiter plate was washed with PBS and incubated in blocking buffer containing 0.1% defatted milk powder with 10 ng/ml human wild-type ^125 I-TNFα and various dilutions of E. coli lysates ranging from 10^-2 to 10^-7 (10-fold serial dilutions). TNFα was labelled by the Iodogen method (Pierce Chemical Company) to a specific activity of about 10-30 μCi/μg. The volume was 100 μl/well and each lysate dilution was assayed in duplicate or triplicate. After three hours at room temperature the wells were thoroughly washed with PBS and counted in a γ-counter. The results are given in Table 2 for lysates comprising the muteins indicated therein.

[3] = test system: human TNFR-p55; assay: Competitive binding of purified muteins to recombinant human TNFR-p55
Protocol: (§2) The cells were disrupted in a French press at a pressure of 20'000 psi or by sonication in a Branson Sonifier (Model 450, 2×2minat maximal output, on ice). […] Proteins were eluted with a linear NaCl gradient (0 to 400 mM in 20 mM Tris pH 9.0) at a flow rate of 1 ml/min. 5 ml fractions were collected and analyzed for the presence of TNFα muteins by SDS-PAGE. Positive fractions were pooled, dialyzed against 20 mM 2-morpholino-ethanesulfonic acid (MES) pH 6.0 and applied to a MonoS column (HR 5/5, LKB-Pharmacia) equilibrated in 20 mM MES pH 6.0. Proteins were eluted with a linear NaCl gradient (0 to 400 mM in 20 mM MES pH 6.0) at a flow rate of 0.5 ml/min. […] After dialysis against PBS the protein concentration was determined by the BCA Protein Assay (Pierce Chemical Company) using wild-type human TNFα as a standard or by absorbance measurements at 280 nm.
(§3) TNFα was labelled by the Iodogen method (Pierce Chemical Company) to a specific activity of about 10-30 μCi/μg. The volume was 100 μl/well and each concentration was assayed in duplicate or triplicate. After three hours at room temperature the wells were thoroughly washed with PBS and counted in a γ-counter.

[4] = test system: human TNFR-p75; assay: Competitive binding of purified muteins to recombinant human TNFR-p75
Protocol: as §2, §3

[5] = IC50 of mutein divided by IC50 of wildtype TNFα

Molecule	Dilution of E. coli Lysate for 50% Inhibition of 125I-TNFα Binding (ID50) TNFR-p55 [1]	ID50 TNFR-p55 / ID50 TNFR-p75 [1]	Dilution of E. coli Lysate for 50% Inhibition of 125I-TNFα Binding (ID50) TNFR-p75 [2]	Decrease in Binding Affinity with Respect to Wildtype TNFR-p55 [3, 5]	Mutein Concentration for 50% Inhibition of 125I-TNFα Binding (IC50) TNFR-p55 ([3]; purified protein, 10 ng/ml 125I-TNFα, > = competition but below 50% at 100 μg/ml, >> = no measurable competition at 100 μg/ml)	Decrease in Binding Affinity with Respect to Wildtype TNFR-p75 [4, 5]	Mutein Concentration for 50% Inhibition of 125I-TNFα Binding (IC50) TNFR-p75 ([4]; purified protein, 10 ng/ml 125I-TNFα)
A145R: human TNFα mutein A145R	< 100 fold	< 0.03	3,330 fold	2,500 fold	100,000 ng/ml	0.8 fold	0.035 µg/mL
N34P: human TNFα mutein N34P	< 100 fold	> 1	< 100 fold	–	–	–	–
F144W: human TNFα mutein F144W	400 fold	2.2	180 fold	–	–	–	–
Y87K: human TNFα mutein Y87K	< 100 fold	1	< 100 fold	–	–	–	–
Y87F: human TNFα mutein Y87F	200 fold	> 2	< 100 fold	–	–	–	–
H73Q: human TNFα mutein H73Q	10,000 fold	1	10,000 fold	–	–	–	–
N34F: human TNFα mutein N34F	100 fold	> 1	< 100 fold	–	–	–	–
L29S-R32W: human TNFα mutein L29S-R32W	5,000 fold	> 50	< 100 fold	–	–	–	–
Q67T: human TNFα mutein Q67T	25,000 fold	0.75	33,330 fold	–	–	–	–
N34H: human TNFα mutein N34H	670 fold	> 6.7	< 100 fold	–	–	–	–
R32W-S86T: human TNFα mutein R32W-S86T	3,330 fold	> 33.3	< 100 fold	–	–	–	–
S99Y: human TNFα mutein S99Y	< 100 fold	1	< 100 fold	–	–	–	–
D143V-A145S: human TNFα mutein D143V-A145S	< 100 fold	< 0.5	200 fold	–	–	–	–
F144Y: human TNFα mutein F144Y	2,860 fold	1	2,860 fold	–	–	–	–
Y115W: human TNFα mutein Y115W	2,220 fold	1	2,220 fold	–	–	–	–
H73T: human TNFα mutein H73T	2,000 fold	1	2,000 fold	–	–	–	–
B1	2,500 fold	> 25	< 100 fold	–	–	–	–
B2	< 100 fold	1	< 100 fold	–	–	–	–
B3	500 fold	> 5	< 100 fold	–	–	–	–
B4	< 100 fold	< 1	< 100 fold	–	–	–	–

— patent US5597899A, “Tumor necrosis factor muteins” (Hoffmann-La Roche Inc., priority 1993, dated 1997)
